Tests used:
Assay in all cases: relative viability (nuclei count vs DMSO), 5 days (fraction); higher = more cells survive
Linifanib + Dasatinib = compound: Cc1ccc(F)c(NC(=O)Nc2ccc(-c3cccc4[nH]nc(N)c34)cc2)c1 [Linifanib] + Cc1nc(Nc2ncc(C(=O)Nc3c(C)cccc3Cl)s2)cc(N2CCN(CCO)CC2)n1 [Dasatinib] (partner 0.075 µM)
Method in brief: (§1)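 Lung cancer cell lines, seeded in 1536-well plates, were treated the following day by pin tool with a single drug or with five library-drug doses (not always all listed) in √10 steps on top of a fixed anchor-drug dose. Cells were fixed and nuclei stained in one step after 5 days, and nuclei were counted. Relative viability is the nuclei count for treated wells divided by that for vehicle wells, reported as medians of duplicate plates.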

Linifanib + Navitoclax = compound: Cc1ccc(F)c(NC(=O)Nc2ccc(-c3cccc4[nH]nc(N)c34)cc2)c1 [Linifanib] + CC1(C)CCC(c2ccc(Cl)cc2)=C(CN2CCN(c3ccc(C(=O)NS(=O)(=O)c4ccc(N[C@H](CCN5CCOCC5)CSc5ccccc5)c(S(=O)(=O)C(F)(F)F)c4)cc3)CC2)C1 [Navitoclax] (partner 0.5 µM)
Method in brief: as §1

Linifanib + Pemetrexed = compound: Cc1ccc(F)c(NC(=O)Nc2ccc(-c3cccc4[nH]nc(N)c34)cc2)c1 [Linifanib] + Nc1nc2[nH]cc(CCc3ccc(C(=O)N[C@@H](CCC(=O)O)C(=O)O)cc3)c2c(=O)[nH]1 [Pemetrexed] (partner 0.2 µM)
Method in brief: as §1

Linifanib + Decitabine = compound: Cc1ccc(F)c(NC(=O)Nc2ccc(-c3cccc4[nH]nc(N)c34)cc2)c1 [Linifanib] + Nc1ncn([C@H]2C[C@H](O)[C@@H](CO)O2)c(=O)n1 [Decitabine] (partner 2 µM)
Method in brief: as §1

Linifanib + Linsitinib = compound: Cc1ccc(F)c(NC(=O)Nc2ccc(-c3cccc4[nH]nc(N)c34)cc2)c1 [Linifanib] + C[C@]1(O)C[C@@H](c2nc(-c3ccc4ccc(-c5ccccc5)nc4c3)c3c(N)nccn32)C1 [Linsitinib] (partner 1 µM)
Method in brief: as §1

Linifanib + Foretinib = compound: Cc1ccc(F)c(NC(=O)Nc2ccc(-c3cccc4[nH]nc(N)c34)cc2)c1 [Linifanib] + COc1cc2c(Oc3ccc(NC(=O)C4(C(=O)Nc5ccc(F)cc5)CC4)cc3F)ccnc2cc1OCCCN1CCOCC1 [Foretinib] (partner 0.25 µM)
Method in brief: as §1

Row | Cell Line | relative viability (Linifanib + Dasatinib; first compound 0.03162 µM) | relative viability (Linifanib + Dasatinib; first compound 0.1 µM) | relative viability (Linifanib + Dasatinib; first compound 0.3162 µM) | relative viability (Linifanib + Navitoclax; first compound 0.03162 µM) | relative viability (Linifanib + Navitoclax; first compound 0.1 µM) | relative viability (Linifanib + Navitoclax; first compound 0.3162 µM) | relative viability (Linifanib + Pemetrexed; first compound 0.03162 µM) | relative viability (Linifanib + Pemetrexed; first compound 0.1 µM) | relative viability (Linifanib + Pemetrexed; first compound 0.3162 µM) | relative viability (Linifanib + Decitabine; first compound 0.03162 µM) | relative viability (Linifanib + Decitabine; first compound 0.1 µM) | relative viability (Linifanib + Decitabine; first compound 0.3162 µM) | relative viability (Linifanib + Linsitinib; first compound 0.03162 µM) | relative viability (Linifanib + Linsitinib; first compound 0.1 µM) | relative viability (Linifanib + Linsitinib; first compound 0.3162 µM) | relative viability (Linifanib + Foretinib; first compound 0.03162 µM) | relative viability (Linifanib + Foretinib; first compound 0.1 µM) | relative viability (Linifanib + Foretinib; first compound 0.3162 µM)
1 | RERF-LC-KJ | 0.836 | 0.983 | 0.937 | 1.12 | 1.02 | 0.994 | 0.502 | 0.494 | 0.484 | 0.707 | 0.651 | 0.717 | 0.888 | 0.907 | 0.827 | 0.796 | 0.932 | 0.814
2 | HCC-78 | 0.441 | 0.539 | 0.37 | 0.791 | 0.74 | 0.792 | 0.944 | 0.926 | 0.85 | 0.784 | 0.752 | 0.717 | 0.528 | 0.526 | 0.497 | 0.543 | 0.501 | 0.542
3 | NCI-H1755 | 0.458 | 0.406 | 0.388 | 0.931 | 1.06 | 0.949 | 0.457 | 0.465 | 0.474 | 0.696 | 0.731 | 0.698 | 0.953 | 1.01 | 0.999 | 0.934 | 0.912 | 0.902
4 | HCC-366 | 0.554 | 0.648 | 0.582 | 1.12 | 1.11 | 0.874 | 0.159 | 0.15 | 0.139 | 0.417 | 0.328 | 0.336 | 0.676 | 0.735 | 0.5 | 1.01 | 0.981 | 0.826
5 | NCI-H2405 | 0.212 | 0.199 | 0.219 | 0.889 | 0.88 | 0.754 | 1.06 | 1.11 | 1.04 | 0.766 | 0.747 | 0.756 | 0.886 | 0.98 | 0.852 | 1.06 | 1.04 | 1.07
6 | COR-L 105 | 0.416 | 0.361 | 0.322 | 0.808 | 0.938 | 0.796 | 1.12 | 1.02 | 1.07 | 0.602 | 0.73 | 0.585 | 0.87 | 0.978 | 0.715 | 0.968 | 1.08 | 0.919
7 | NCI-H1395 | 0.3 | 0.394 | 0.405 | 1.19 | 1.17 | 1.21 | 0.92 | 1.02 | 0.825 | 0.725 | 0.753 | 0.698 | 1.06 | 1.08 | 1.09 | 0.967 | 1.05 | 0.998
8 | NCI-H1915 | 0.301 | 0.359 | 0.36 | 0.78 | 0.821 | 0.788 | 0.588 | 0.502 | 0.502 | 0.286 | 0.247 | 0.257 | 1.12 | 1.09 | 1.08 | 1.08 | 1.15 | 1.04
9 | ABC-1 | 0.546 | 0.555 | 0.589 | – | – | – | – | – | – | 0.961 | 0.942 | 0.95 | 0.825 | 1.03 | 0.788 | 1.02 | 1.08 | 0.921
10 | NCI-H1650 | 0.327 | 0.348 | 0.252 | 0.998 | 1.35 | 1.21 | 0.364 | 0.346 | 0.348 | 0.482 | 0.407 | 0.37 | – | – | – | 0.966 | 1.33 | 1.07
11 | NCI-H358 | 0.175 | 0.204 | 0.205 | – | – | – | 0.168 | 0.166 | 0.155 | 0.231 | 0.218 | 0.213 | 0.691 | 0.738 | 0.693 | 0.825 | 0.794 | 0.717
12 | NCI-H2170 | 0.662 | 0.611 | 0.579 | 0.557 | 0.616 | 0.448 | 0.265 | 0.276 | 0.297 | 0.472 | 0.448 | 0.453 | – | – | – | 0.792 | 1.01 | 0.99
13 | NCI-H1792 | 0.622 | 0.774 | 0.819 | 0.692 | 0.621 | 0.639 | 1.03 | 1 | 0.724 | 0.525 | 0.643 | 0.464 | 0.386 | 0.522 | 0.535 | – | – | –
14 | LCLC-103H | 0.434 | 0.621 | 0.399 | – | – | – | 0.477 | 0.469 | 0.458 | 0.75 | 0.667 | 0.696 | 1.13 | 1.07 | 0.978 | 0.629 | 0.753 | 0.803
15 | NCI-H650 | 0.461 | 0.451 | 0.444 | – | – | – | 0.899 | 1.15 | 0.899 | 0.371 | 0.355 | 0.312 | 1 | 1.07 | 0.851 | 1 | 1.03 | 0.994
16 | NCI-H2228 | 0.541 | 0.556 | 0.538 | 0.994 | 1.01 | 0.8 | 0.325 | 0.355 | 0.319 | – | – | – | 0.648 | 0.705 | 0.5 | 1.08 | 0.889 | 0.81
17 | CAL-12T | 0.457 | 0.508 | 0.343 | 1.18 | 1.21 | 1.04 | 1.2 | 1.27 | 1.18 | – | – | – | 0.905 | 0.722 | 0.755 | 1.14 | 1.21 | 1.14
18 | NCI-H727 | 0.449 | 0.344 | 0.521 | 0.407 | 0.402 | 0.415 | – | – | – | 0.883 | 0.885 | 0.88 | 0.224 | 0.291 | 0.222 | 1.03 | 0.921 | 0.723

Reference: the supplement of paper PMC10307832
